The data set in a line: Evaluation of hydrophobicity degree of dye by TLC (Rf value). Format: physicochemical. The settings on record: of the dye used; TLC glass plate RP-18, methanol containing 1 wt % lithium chloride. The protocol: (Evaluation Method for Hydrophobicity Degree of Hydrophobic Dye Having Cyanine Structure) In order to compare the hydrophobicity degrees of hydrophobic dyes each having a cyanine structure, an evaluation was performed through use of a thin-layer liquid chromatography (hereinafter may be abbreviated as TLC) method. A TLC glass plate RP-18 (manufactured by Merck) was used as a plate for development, and a methanol solution containing 1 wt % of lithium chloride was used as a developing solvent. According to an ordinary method, a dye solution was spotted on the origin, and a relative migration distance (hereinafter may be abbreviated as Rf value) was calculated based on the following equation. Rf value=Distance from origin to center of spot of component/Distance from origin to solvent front

Molecules are shown by their SMILES.

The compound `CN1\C(=C/C=C/C=C/C=C/C2=[N+](C)c3ccccc3C2(C)C)C(C)(C)c2ccccc21` [Chemical formula (C1), 1,1′,3,3,3′,3′-hexamethylindotricarbocyanine perchlorate] returned a Rf value of 0.45.
With `CCN1/C(=C/C=C/C=C/C=C/C2=[N+](CC)c3ccccc3C2(C)C)C(C)(C)c2ccccc21` [Chemical formula (A2), 3H-indolium, 1-ethyl-2-[7-(1-ethyl-1,3-dihydro-3,3-dimethyl-2H-indol-2-ylidene)-1,3,5-heptatrien-1-yl]-3,3-dimethyl-, iodide], the Rf value was 0.5.
Then `CN1/C(=C/C=C2\CCCC(/C=C/C3=[N+](C)c4ccc5ccccc5c4C3(C)C)=C2Cl)C(C)(C)c2c1ccc1ccccc21` [Chemical formula (A3), 2-[2-[2-chloro-3-[2-(1,3-dihydro-1,1,3-trimethyl-2H-benzo[e]-indol-2-ylidene)-ethylidene]-1-cyclohexen-1-yl]-ethenyl]-1,1,3-trimethyl-1H-benzo[e]indolium perchlorate], with 0.09; and `CN1/C(=C/C=C/C=C/C=C/C2=[N+](C)c3ccc4ccccc4c3C2(C)C)C(C)(C)c2c1ccc1ccccc21` [Chemical formula (C2), 1,1′,3,3,3′,3′-hexamethyl-4,4′,5,5′-dibenzo-2,2′-indotricarbocyanine perchlorate], with 0.31; and `CN1/C(=C/C=C/C=C/C=C/C2=[N+](C)c3ccccc3C2(C)C)C(C)(C)c2ccccc21` [Chemical formula (A1), 1,1′,3,3,3′,3′-hexamethylindotricarbocyanine iodide], with 0.45.
